From ChEMBL document CHEMBL1201862, “PubChem BioAssay data set” (2004) come the findings set out here.

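Test compounds were applied to cells in 96-well plates for 48 hours at 5 doses. GI50 marks 50% less growth.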 Active and inactive are the calls of the source. No stated cut-off is given here; in the data, active = GI50 up to about 1.1 µM and inactive = higher. Bounds are passed on as bounds.

Test systems include OVCAR-4; IGROV-1; DU-145; NCI-H460; EKVX; SF-295; HOP-62; OVCAR-3; M14; RXF 393; Malme-3M; MDA-N; MDA-MB-231; SK-MEL-28; COLO 205; HL-60; UACC-62; SW-620; UACC-257; LOX IMVI.
What all share (assay): inhibition of tumour cell growth, NCI panel, 48 h

For `Cn1c(=O)c2nc3nnc(C#N)c(N)n3c2n(C)c1=O`, the GI50 was > 100 µM (inactive) in the experiment on OVCAR-4; 87.3 µM (inactive) in the experiment with IGROV-1; 72.4 µM (inactive) in the experiment on DU-145; > 100 µM (inactive) with NCI-H460; > 100 µM (inactive) in the experiment on EKVX; > 100 µM (inactive) with SF-295. Also, the GI50 in the experiment on HOP-62 was > 100 µM (inactive); in the experiment with OVCAR-3 it was > 100 µM (inactive); in the experiment on M14, > 100 µM (inactive); in the experiment on RXF 393 it was 79.4 µM (inactive); in the experiment with Malme-3M, 25.2 µM (inactive); in the experiment with MDA-N, > 100 µM (inactive). The GI50 in the experiment on MDA-MB-231, in the experiment on SK-MEL-28, in the experiment on COLO 205, in the experiment on HL-60 and in the experiment on UACC-62 was > 100 µM (inactive) throughout.
Regarding `Cc1occc1C(=S)Nc1ccc(Cl)c(/C=N/OC(C)(C)C)c1`, the GI50 is 18.5 µM (inactive) with SW-620; 18.3 µM (inactive) with OVCAR-4; 16.7 µM (inactive) in the experiment on UACC-257; 23.8 µM (inactive) with IGROV-1; 19.7 µM (inactive) with DU-145; 14.7 µM (inactive) in the experiment with NCI-H460. Also, the GI50 with EKVX is 18.4 µM (inactive); with LOX IMVI, 13.1 µM (inactive); with SF-295, 13.3 µM (inactive); in the experiment on HOP-62 it was 19.9 µM (inactive); in the experiment on OVCAR-3, 15.6 µM (inactive); with M14 it was 18.2 µM (inactive). Besides, the GI50 in the experiment on RXF 393 was 13.4 µM (inactive); in the experiment with Malme-3M it was 21.8 µM (inactive); in the experiment on MDA-N it was 18.9 µM (inactive); in the experiment with MDA-MB-231 it was 19.7 µM (inactive); in the experiment with SK-MEL-28, 17.7 µM (inactive); in the experiment with COLO 205 it was 17.5 µM (inactive). Besides, the GI50 in the experiment with HL-60 is 17.3 µM (inactive); with UACC-62, 14.3 µM (inactive).
`COc1cc(/C=C2\N=C(c3ccccc3)N(c3nc4cc(C)c(C)cc4s3)C2=O)ccc1O`: the GI50 was 35.5 µM (inactive) with SW-620; 20.7 µM (inactive) with OVCAR-4; 21.3 µM (inactive) with UACC-257; 21.4 µM (inactive) in the experiment with IGROV-1; 61.7 µM (inactive) with DU-145; 27.4 µM (inactive) in the experiment on NCI-H460. The GI50 in the experiment with EKVX was 23.3 µM (inactive); in the experiment with LOX IMVI it was 30.5 µM (inactive); in the experiment with SF-295, 66.8 µM (inactive); in the experiment on HOP-62 it was 74.1 µM (inactive); in the experiment with OVCAR-3 it was 23.7 µM (inactive); in the experiment on M14, 47.4 µM (inactive). In addition, the GI50 in the experiment with RXF 393 is 20.4 µM (inactive); with MDA-N, 15.2 µM (inactive); in the experiment on MDA-MB-231, 66.1 µM (inactive); in the experiment with SK-MEL-28, 71.3 µM (inactive); with COLO 205, 40.1 µM (inactive); in the experiment with HL-60, 18.7 µM (inactive). The GI50 with UACC-62 was 26.6 µM (inactive).
In the case of `O=C1O/C(=C(/Br)c2ccc(Cl)c(Cl)c2)c2ccccc21`, the GI50 in the experiment on SW-620, in the experiment on OVCAR-4, in the experiment with UACC-257, in the experiment on IGROV-1, with DU-145 and with NCI-H460 was > 10 µM (inactive) in each case. The GI50 in the experiment on EKVX, in the experiment with LOX IMVI, in the experiment with SF-295, with HOP-62, in the experiment with OVCAR-3 and with M14 was > 10 µM (inactive) throughout. For the same molecule, the GI50 with RXF 393, with MDA-N, in the experiment on MDA-MB-231, in the experiment with SK-MEL-28, in the experiment with COLO 205 and with HL-60 was > 10 µM (inactive) in each case. Further, the GI50 with UACC-62 was > 10 µM (inactive).
With `CCCCCCCCCCCCCCCCCCOCC(O)COP(=O)(O)OCC1OC(n2ccc(N)nc2=O)C(O)C1O` (stereo unspecified), the GI50 in the experiment on SW-620 is 35.6 µM (inactive); in the experiment with OVCAR-4, 28.3 µM (inactive); with UACC-257, 24.8 µM (inactive); in the experiment on IGROV-1, 9.62 µM (inactive); in the experiment on DU-145 it was 98.2 µM (inactive); with NCI-H460, 3.69 µM (inactive). The GI50 with EKVX was 61.8 µM (inactive); in the experiment with LOX IMVI, 14.1 µM (inactive); in the experiment with SF-295 it was 22.7 µM (inactive); in the experiment with HOP-62, 11.6 µM (inactive); in the experiment with OVCAR-3 it was 43.5 µM (inactive); in the experiment with RXF 393 it was 12.9 µM (inactive). The GI50 in the experiment with Malme-3M was 7.05 µM (inactive); in the experiment with MDA-N, 93.8 µM (inactive); with MDA-MB-231 it was 25.8 µM (inactive); in the experiment on SK-MEL-28, 57.5 µM (inactive); in the experiment with COLO 205, 10.9 µM (inactive); in the experiment on HL-60 it was 9.84 µM (inactive). In addition, the GI50 with UACC-62 is 23.9 µM (inactive).
As for `O=C(N/C(=C\NC1=NCCS1)C(=O)N1CSC[C@@H]1C(=O)O)c1ccccc1`, the GI50 in the experiment on SW-620, in the experiment with OVCAR-4, in the experiment on UACC-257, in the experiment on DU-145, with NCI-H460 and in the experiment on EKVX was > 100 µM (inactive) throughout. The GI50 with LOX IMVI, in the experiment on SF-295, in the experiment with HOP-62, in the experiment with OVCAR-3, in the experiment with M14 and in the experiment with RXF 393 was > 100 µM (inactive) in each case. Further, the GI50 in the experiment with MDA-N, with MDA-MB-231, in the experiment with SK-MEL-28, in the experiment on COLO 205, with HL-60 and in the experiment with UACC-62 was > 100 µM (inactive) each time.
In the case of `CC(=O)Oc1ccc2cc(Oc3ccc(Cl)cc3)c(=O)oc2c1`, the GI50 in the experiment with SW-620 is 40.8 µM (inactive); in the experiment with OVCAR-4, 58.2 µM (inactive); in the experiment on UACC-257, 24.1 µM (inactive); in the experiment on IGROV-1 it was 30.1 µM (inactive); in the experiment with DU-145 it was 53.6 µM (inactive); in the experiment on NCI-H460 it was 40.7 µM (inactive). Also, the GI50 was 36.5 µM (inactive) with EKVX; 37.9 µM (inactive) in the experiment on LOX IMVI; 33.6 µM (inactive) in the experiment on SF-295; 58.2 µM (inactive) in the experiment on HOP-62; 19.2 µM (inactive) in the experiment with OVCAR-3; 49.9 µM (inactive) in the experiment with M14. Also, the GI50 with RXF 393 is 46.9 µM (inactive); with Malme-3M it was 25 µM (inactive); in the experiment with MDA-N, 25.6 µM (inactive); in the experiment with MDA-MB-231, 44.3 µM (inactive); in the experiment on SK-MEL-28, 41.5 µM (inactive); with HL-60, 49.4 µM (inactive).
Take `COc1cc2cc(C(=O)N3CC(COS(C)(=O)=O)c4c3cc([N+](=O)[O-])c3ccccc43)[nH]c2c(OC)c1OC` (stereo unspecified): the GI50 was 1.79 µM (inactive) with SW-620; > 31.6 µM (inactive) with OVCAR-4; > 31.6 µM (inactive) with UACC-257; 23.5 µM (inactive) in the experiment with IGROV-1; 0.553 µM (active) in the experiment on DU-145; 0.0986 µM (active) in the experiment on NCI-H460. Moreover, the GI50 in the experiment on EKVX is > 31.6 µM (inactive); in the experiment with LOX IMVI, 33.2 µM (inactive); with SF-295 it was 2.37 µM (inactive); in the experiment on HOP-62, 7.57 µM (inactive); in the experiment on OVCAR-3, > 31.6 µM (inactive); in the experiment on M14, 19 µM (inactive). The GI50 was 18.3 µM (inactive) with RXF 393; 19.5 µM (inactive) with MDA-N; 60.4 µM (inactive) with MDA-MB-231; > 31.6 µM (inactive) with SK-MEL-28; > 35.6 µM (inactive) in the experiment with COLO 205; 0.794 µM (active) in the experiment on HL-60. The GI50 in the experiment on UACC-62 was 2.74 µM (inactive).
`O=S(=O)(O)c1cccc2cccc(/N=N/c3c(O)ccc4ccccc34)c12`: the GI50 is > 100 µM (inactive) in the experiment with SW-620; > 100 µM (inactive) with OVCAR-4; > 100 µM (inactive) in the experiment on UACC-257; 31.9 µM (inactive) with IGROV-1; > 100 µM (inactive) with DU-145; > 100 µM (inactive) in the experiment with NCI-H460. The GI50 was 92.3 µM (inactive) in the experiment on EKVX; > 100 µM (inactive) in the experiment on SF-295; > 100 µM (inactive) with HOP-62; > 100 µM (inactive) in the experiment with OVCAR-3; > 100 µM (inactive) in the experiment with M14; > 100 µM (inactive) in the experiment with RXF 393. Moreover, the GI50 with Malme-3M, in the experiment on MDA-N, in the experiment with MDA-MB-231, with COLO 205, in the experiment with HL-60 and with UACC-62 was > 100 µM (inactive) each time.
Consider `O=C1CN(/N=C/c2ccc(-c3ccc(F)cc3)o2)C(=O)N1`, for which the GI50 in the experiment with SW-620 is 43 µM (inactive); in the experiment with UACC-257, 21.8 µM (inactive); in the experiment on IGROV-1, 41.6 µM (inactive); in the experiment on DU-145 it was > 100 µM (inactive); in the experiment on NCI-H460, 45.2 µM (inactive); in the experiment on EKVX, > 100 µM (inactive). Further, the GI50 in the experiment with LOX IMVI was 26.6 µM (inactive); in the experiment on SF-295, 55.7 µM (inactive); in the experiment on HOP-62, > 100 µM (inactive); in the experiment with OVCAR-3, > 100 µM (inactive); in the experiment on M14, 75.3 µM (inactive); with RXF 393 it was > 100 µM (inactive). Further, the GI50 in the experiment on Malme-3M is 47.5 µM (inactive); with MDA-N, 16.9 µM (inactive); in the experiment with MDA-MB-231, > 100 µM (inactive); with SK-MEL-28, 25.4 µM (inactive); with COLO 205, 29.7 µM (inactive); in the experiment on HL-60, 55.6 µM (inactive). The GI50 in the experiment with UACC-62 was 45.5 µM (inactive).
